# Numbering of substitutions follows the chain as printed.
# Assays:
# [1] = biological target: T1, 5HTBP construct A1 B2 D1W (Aplysia californica, UniProt Q8WSF8, K160T/S111E/V159L/Y72W); test: SPR biosensor assay; settings: construct A1B2D1W; stated for both [3H]granisetron binding and SPR
# T1 sequence (Q8WSF8 20-236 Y72W/S111E/V159L/K160T): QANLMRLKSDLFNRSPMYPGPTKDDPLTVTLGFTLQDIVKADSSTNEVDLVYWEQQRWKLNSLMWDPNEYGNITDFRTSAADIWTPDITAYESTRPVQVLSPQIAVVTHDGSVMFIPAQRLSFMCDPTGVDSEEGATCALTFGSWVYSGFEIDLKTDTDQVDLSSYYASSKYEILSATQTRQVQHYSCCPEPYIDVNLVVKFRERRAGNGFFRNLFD
# [2] = test system: AChBPs; settings: ref [4], [5]; cited from earlier work
# [3] = biological target: T2, 5HTBP construct D2 (Y53W, Q55R) (Aplysia californica, UniProt Q8WSF8, Q74R/Y72W); test: Competition binding with [3H]granisetron; settings: read-out: Granisetron Ki, [3H]granisetron binding
# T2 sequence (Q8WSF8 20-236 Y72W/Q74R): T1 sequence (Q8WSF8 20-236 Y72W/S111E/V159L/K160T) with Q55R, E92S, L140V, T141K
# [4] = biological target: T3, 5HTBP construct A1 (S92E) (Aplysia californica, UniProt Q8WSF8, S111E); test: Competition binding with [3H]granisetron; settings: read-out: Ki, [3H]granisetron binding; single mutant construct A1 (S92E)
# T3 sequence (Q8WSF8 20-236 S111E): T1 sequence (Q8WSF8 20-236 Y72W/S111E/V159L/K160T) with W53Y, L140V, T141K
# [5] = biological target: T4, construct A2NE (Y91N, S92E) (Aplysia californica, UniProt Q8WSF8, S111E/Y110N); test: [3H]granisetron binding to single-loop construct
# T4 sequence (Q8WSF8 20-236 Y110N/S111E): T1 sequence (Q8WSF8 20-236 Y72W/S111E/V159L/K160T) with W53Y, Y91N, L140V, T141K
# [6] = biological target: T5, construct C5 (Aplysia californica, UniProt Q8WSF8, C207M/C208E/E210S/P209S/P211N); test: [3H]granisetron binding to single-loop construct
# T5 sequence (Q8WSF8 20-236 C207M/C208E/P209S/E210S/P211N): T1 sequence (Q8WSF8 20-236 Y72W/S111E/V159L/K160T) with W53Y, E92S, L140V, T141K, C188M, C189E, P190S, E191S, P192N
# [7] = biological target: T6, construct C6 (Aplysia californica, UniProt Q8WSF8, C207E/C208S/E210N/INS206M/P209S/P211Y); test: [3H]granisetron binding to single-loop construct
# T6 sequence (Q8WSF8 with tags, fused parts or gaps INS206M/C207E/C208S/P209S/E210N/P211Y): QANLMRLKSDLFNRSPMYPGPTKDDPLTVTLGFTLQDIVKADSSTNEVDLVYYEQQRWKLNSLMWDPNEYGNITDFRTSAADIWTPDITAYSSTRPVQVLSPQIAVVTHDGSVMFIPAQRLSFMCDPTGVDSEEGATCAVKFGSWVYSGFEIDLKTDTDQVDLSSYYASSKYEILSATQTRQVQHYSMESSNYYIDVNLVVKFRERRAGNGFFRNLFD
# [8] = biological target: T7, construct E3 (Aplysia californica, UniProt Q8WSF8, I123Y/I135Y/V125Y); test: [3H]granisetron binding to single-loop construct
# T7 sequence (Q8WSF8 20-236 I123Y/V125Y/I135Y): T1 sequence (Q8WSF8 20-236 Y72W/S111E/V159L/K160T) with W53Y, E92S, I104Y, V106Y, I116Y, L140V, T141K
# [9] = biological target: T8, construct E1 (Aplysia californica, UniProt Q8WSF8, I135Y); test: [3H]granisetron binding to single-loop construct
# T8 sequence (Q8WSF8 20-236 I135Y): T1 sequence (Q8WSF8 20-236 Y72W/S111E/V159L/K160T) with W53Y, E92S, I116Y, L140V, T141K
# [10] = biological target: T9, 5HTBP construct A1 B2 D2 (Aplysia californica, UniProt Q8WSF8, K160T/Q74R/S111E/V159L/Y72W); test: Competition binding with [3H]granisetron; settings: NB = no binding
# T9 sequence (Q8WSF8 20-236 Y72W/Q74R/S111E/V159L/K160T): T1 sequence (Q8WSF8 20-236 Y72W/S111E/V159L/K160T) with Q55R
smiles,measurement,setting,value
"NCCc1c[nH]c2ccc(O)cc12 [Serotonin, 5-hydroxytryptamine]",increase in the affinity compared with wild-type Ac-AChBP,[1],~40 fold
same,lower affinity than acetylcholine,[2],~60 fold
"CN1C2CCCC1CC(NC(=O)c1nn(C)c3ccccc13)C2 (stereo not shown) [[^3H]granisetron, [3H]BRL-43694]",Ki,[3],454 ± 71 nM
same,Ki,[4],270 ± 51 nM
same,[3H]granisetron binding,[5],failed to bind
same,[3H]granisetron binding,[6],did not show detectable [^3H]granisetron binding
same,[3H]granisetron binding,[7],did not show detectable [^3H]granisetron binding
same,[3H]granisetron binding,[8],no detectable [^3H]granisetron binding
same,[3H]granisetron binding,[9],no detectable [^3H]granisetron binding
same,"Granisetron Ki, [3H]granisetron binding",[10],no longer bound

# Source: publication PMC3537142 (EMBO Reports, 2012)
